The source of these data is patent publication US20100086513A1, “Method for Effecting Antimicrobial Activity Using Polyamine Analogues” (priority 2008, published 2010).

In assay [1] the test system is E. coli K12 cells + pBR322. Type of assay: cell-based, Escherichia coli.
In assay [2] the test system is Y. pestis KIM6+. The assay is classed as cell-based, Yersinia pestis.
In the next assay the test system is E. coli K12. Type of assay: cell-based, Escherichia coli.
Assay [3] has as its system Y. pestis KIM6+. Type of assay: cell-based, Yersinia pestis. The source holds these as a separate data set.

The structures appear in SMILES notation. Values after ≈ are worked out from the molar mass of the structure shown.

Turning to `CC[C@H](C)[C@H](NC(=O)CN)C(=O)NCC(=O)N[C@@H](C)C(=O)N[C@H](C(=O)N[C@@H](CC(C)C)C(=O)N[C@@H](CCCCN)C(=O)N[C@H](C(=O)N[C@@H](CC(C)C)C(=O)N[C@H](C(=O)N[C@H](C(=O)NCC(=O)N[C@@H](CC(C)C)C(=O)N1CCC[C@H]1C(=O)N[C@@H](C)C(=O)N[C@@H](CC(C)C)C(=O)N[C@H](C(=O)N[C@@H](CO)C(=O)N[C@@H](Cc1c[nH]c2ccccc12)C(=O)N[C@H](C(=O)N[C@@H](CCCCN)C(=O)N[C@@H](CCCNC(=N)N)C(=O)N[C@@H](CCCCN)C(=O)N[C@@H](CCCNC(=N)N)C(=O)N[C@@H](CCC(N)=O)C(=O)N[C@@H](CCC(N)=O)C(N)=O)[C@@H](C)CC)[C@@H](C)CC)[C@@H](C)O)[C@@H](C)O)C(C)C)C(C)C` [mellitin], the “release of β-lactamase (Nitrocefin absorption at 486 nm)” value in assay [1] was “a reaction of Nitrocefin to β-lactamase occurs almost immediately”. With `NCCCCNCCCN` [spermidine], the figures for the “transport of [14C] spermidine” value with Y. pestis KIM6+ [2] and with E. coli K12 were “effectively unable to transport” and “able to transport a significant amount”, respectively. `N=C(NCCCNCCCCCCCNCCCNC(=N)NC(=N)NCCC(c1ccccc1)c1ccccc1)NC(=N)NCCC(c1ccccc1)c1ccccc1` [XBI-54-13B] gave a minimum inhibitory concentration (MIC) in the assay with Y. pestis KIM6+ [3] of 1.56 mg/L (≈ 1.95 µM). Also, the “release of β-lactamase (Nitrocefin absorption at 486 nm)” value in assay [1] is on record as “quickly causes a release of β-lactamase”.

In the case of `NCCCCN` [putrescine], the “uptake of [14C] putrescine” value with Y. pestis KIM6+ [2] and in the assay on E. coli K12 was “ability to transport significant amounts” throughout.
